The record followed here is publication doi:10.1101/2025.06.30.662286v4 (biorxiv, 2026).

Read-outs that look alike come from different tables or passages of the source.

Test [1] deals with sc-apCC-6-DPH-NR (P, promiscuous binder). The experiment in a line: fluorescence saturation binding. The arrangement: species or system synthetic construct. The settings on record: PBS pH 7.4, 10% v/v MeCN, 0.5 μM ligand, 0-60 μM protein.
The target in test [2] is sc-apCC-4-DPH (highest-affinity DPH binder of Fig. 2; sc-apCC-4-DPH-1 or sc-apCC-4-DPH-2). The test is described as follows: fluorescence intensity saturation binding. The note with it: PBS pH 7.4, 10% v/v MeCN, 0.5 μM DPH, 0-60 μM protein. On the set-up: species or system synthetic construct.
Test [3] deals with sc-apCC-6-NR (S, specific binder). The test is described as follows: fluorescence saturation binding. On the set-up: species or system synthetic construct. The settings on record: PBS pH 7.4, 10% v/v MeCN, 0.5 μM ligand, 0-60 μM protein.
The target of test [4] is sc-apCC-4-SN38-1. The experiment in a line: fluorescence saturation binding. The arrangement: species or system synthetic construct.
Another test has as its target sc-apCC-4-NR-1. The experiment in a line: fluorescence intensity saturation binding. The arrangement: species or system synthetic construct. The note with it: PBS pH 7.4, 10% v/v MeCN, 0.5 μM Nile red, 0-60 μM protein.
Test [5] deals with sc-apCC-4-SN38-1. The test is described as follows: fluorescence saturation binding. On the set-up: species or system synthetic construct. The note with it: ABS pH 4, 10% v/v DMSO, 1 μM SN38, 0-480 μM protein.
A further test addresses sc-apCC-4-LMF-1. The note with it: PBS pH 7.4, 10% v/v DMSO, 1 μM lumiflavin, 0-480 μM protein.

The Kd is the equilibrium constant for the complex coming apart. For `C(=CC=Cc1ccccc1)C=Cc1ccccc1` [DPH, 1,6-diphenyl-1,3,5-hexatriene], the Kd in test [1] is 1900 ± 200 nM; in test [2], 1200 ± 100 nM; in test [3], over 20000 nM.
For the molecule `CCN(CC)c1ccc2nc3c4ccccc4c(=N)cc-3oc2c1` [Nile blue], the Kd at sc-apCC-4-SN38-1 [4] (read-out: KD,Nile blue) is about 400 nM.
In the case of `CCN(CC)c1ccc2nc3c4ccccc4c(=O)cc-3oc2c1` [Nile red], the Kd at sc-apCC-4-NR-1 is 2400 ± 100 nM; on sc-apCC-4-SN38-1 [4] (read-out: KD,Nile Red), about 200 nM; in test [1], 2200 ± 200 nM; in test [3] it was 110 ± 40 nM.
Take `CCc1c2c(nc3ccc(O)cc13)-c1cc3c(c(=O)n1C2)COC(=O)[C@]3(O)CC` [SN38]: at sc-apCC-4-SN38-1 [5], the Kd was 7800 ± 600 nM.
The molecule `Cc1cc2nc3c(=O)[nH]c(=O)nc-3n(C)c2cc1C` [lumiflavin] returned a Kd at sc-apCC-4-LMF-1 of over 50000 nM.
